Measured values as given in patent US11053282B2, “Peptoid affinity ligands” (MIKE-ANN, LLC, priority 2016, dated 2021).
pKd: −log10 of the molar value. *1 amine or outer side, *2 acyl side, *3 side chain or, on linkers, in order; H or OH if unused. Where a SMILES comes first, the peptide text is derived from it. [ ]: non-standard residue; d: D form. ξ: configuration not given here. Gly(N(CH2)2(3-indolyl)) = O=C(O)CNCCc1c[nH]c2ccccc12; NGly(CH2(3-pyridyl)) = O=C(O)CNCc1cccnc1; ξW = NC(Cc1c[nH]c2ccccc12)C(=O)O; Gly(N(CH2)3NH2) = NCCCNCC(=O)O; Cit = NC(=O)NCCC[CH](N)C(=O)O; Cysteamide = C(CS[*:3])N[*:1]; ξCit = NC(=O)NCCCC(N)C(=O)O; ξH = NC(Cc1c[nH]cn1)C(=O)O; Nphe = O=C(O)CNCc1ccccc1; NPrGly = CCCNCC(=O)O; ξV = CC(C)C(N)C(=O)O

Biological target: polyclonal human IgG
Assay: Adsorption isotherm of peptoid affinity resins against polyclonal human IgG
Type: binding
Details: IgG in PBS, 30 minutes; for pKd: affinity constant from hyperbola fit of adsorption isotherm, peptoid conjugated to chromatographic resin, read-out: Kd × 10^−6
Procedure: The affinity for the peptoid-resin combinations was determined by measuring the adsorption isotherm of each resin against polyclonal human IgG (Pakimna et al., J Applied Sci., 12(11): 1136-1141, 2012). Briefly, 0.050 mL of 50% resin slurry was pipetted into 6 individual wells of a 96-well filter plate (0.45 micron, PVDF, Harvard Apparatus). The resin was washed with 2×250 μL PBS using a vacuum manifold. To an individual well, 0.25 mL of a human polyclonal IgG solution at different concentrations (10, 5, 2.5, 1.25, 0.625, and 0.3125 mg/mL) was added. The resin/IgG suspension was agitated gently on a rocking table for 30 minutes. The fluid was then collected via vacuum, and the resin was washed with 0.25 mL of PBS. The filtrate and wash were then analyzed by the BCA assay to determine the residual IgG concentration relative to the starting concentration of the solution.
The equilibrium concentrations were then used to determine the capacity of the resin at each IgG concentration using the following formula: q=Volumesample×(Initial Concentration−Equilibrium Concentration)/Volumeresin
A plot of q versus equilibrium concentration was generated and the data fit with a hyperbola to determine the affinity constant (Kd) and the maximum capacity (qmax) according to the below formula, where C=the equilibrium concentration of antibody in solution: q=qmax×C/(kd+C) Typical adsorption isotherm is shown in FIG. 2. Tabulated Kd and qmax data is found in Table 2.

[1] = maximum capacity (qmax) of resin from hyperbola fit of adsorption isotherm

Row | SMILES | pKd | Qmax [1] | Qmax (mg/mL) [1]
1 | NC(=O)NCCCC(N)C(=O)N(CCc1c[nH]c2ccccc12)CC(=O)N(CC(=O)N(CCc1c[nH]c2ccccc12)CC(=O)NCCS)Cc1cccnc1 (stereo not shown) [Ligand 16-83-9] (H-[ξCit][Gly(N(CH2)2(3-indolyl))][NGly(CH2(3-pyridyl))][Gly(N(CH2)2(3-indolyl))]-Cysteamide) | 5.31 | 52 mg/mL | –
2 | CCCN(CC(=O)NCCS)C(=O)CN(CCc1c[nH]c2ccccc12)C(=O)CNC(=O)CN(CCCN)C(=O)C(Cc1c[nH]c2ccccc12)NC(=O)CNCc1cccnc1 (stereo not shown) [Ligand 16-83-3] (H-[NGly(CH2(3-pyridyl))][ξW][Gly(N(CH2)3NH2)]G[Gly(N(CH2)2(3-indolyl))][NPrGly]-Cysteamide) | 5.14 | 51 mg/mL | –
3 | CCCN(CC(=O)NCCS)C(=O)CN(CCc1c[nH]c2ccccc12)C(=O)CNC(=O)CN(CCCN)C(=O)CN(CCc1c[nH]c2ccccc12)C(=O)C(N)Cc1c[nH]cn1 (stereo not shown) [Ligand 16-83-5] (H-[ξH][Gly(N(CH2)2(3-indolyl))][Gly(N(CH2)3NH2)]G[Gly(N(CH2)2(3-indolyl))][NPrGly]-Cysteamide) | 5.19 | 62 mg/mL | –
4 | CCCN(CC(=O)NCCS)C(=O)CN(CCc1c[nH]c2ccccc12)C(=O)CNC(=O)C(CCCNC(N)=O)NC(=O)CN(CCc1c[nH]c2ccccc12)C(=O)[C@@H](N)Cc1c[nH]cn1 (stereo partly shown) [Ligand 12-65-2] (H-H[Gly(N(CH2)2(3-indolyl))][ξCit]G[Gly(N(CH2)2(3-indolyl))][NPrGly]-Cysteamide) | 4.82 | 53 mg/mL | –
5 | CCCN(CC(=O)NCCS)C(=O)CN(CCc1c[nH]c2ccccc12)C(=O)CNC(=O)C(CCCNC(N)=O)NC(=O)CN(CCc1c[nH]c2ccccc12)C(=O)CNCc1cccnc1 (stereo not shown) [Ligand 12-65-1] (H-[NGly(CH2(3-pyridyl))][Gly(N(CH2)2(3-indolyl))][ξCit]G[Gly(N(CH2)2(3-indolyl))][NPrGly]-Cysteamide) | 5.10 | 65 mg/mL | –
6 | CC(C)C(NC(=O)CN(CCc1c[nH]c2ccccc12)C(=O)CNC(=O)CN(CCCN)C(=O)CN(CCc1c[nH]c2ccccc12)C(=O)CNCc1cccnc1)C(=O)NCCS (stereo not shown) [Ligand 16-83-6] (H-[NGly(CH2(3-pyridyl))][Gly(N(CH2)2(3-indolyl))][Gly(N(CH2)3NH2)]G[Gly(N(CH2)2(3-indolyl))][ξV]-Cysteamide) | 5.34 | 56 mg/mL | –
7 | NC(=O)NCCCC(NC(=O)CN(CCc1c[nH]c2ccccc12)C(=O)CNCc1cccnc1)C(=O)N(CCc1c[nH]c2ccccc12)CC(=O)NCCS (stereo not shown) [Ligand 16-81-4] (H-[NGly(CH2(3-pyridyl))][Gly(N(CH2)2(3-indolyl))][ξCit][Gly(N(CH2)2(3-indolyl))]-Cysteamide) | 5.54 | 64 mg/mL | –
8 | NC(=O)NCCCC(NC(=O)CN(CCc1c[nH]c2ccccc12)C(=O)CNCc1cccnc1)C(=O)NC(CCCNC(N)=O)C(=O)NCCS (stereo not shown) [Ligand 16-84-2] | 5.19 | 48 mg/mL | –
9 | NC(=O)NCCCC(NC(=O)CN(Cc1ccccc1)C(=O)CNCc1cccnc1)C(=O)NC(CCCNC(N)=O)C(=O)N(CC(=O)NCCS)Cc1cccnc1 (stereo not shown) [Ligand 12-65-8] (H-[NGly(CH2(3-pyridyl))][Nphe][Cit][Cit][NGly(CH2(3-pyridyl))]-Cysteamide; configuration not given here) | 5.44 | – | 57. mg/mL
10 | NC(=O)NCCCC(N)C(=O)N(CC(=O)N(CCc1c[nH]c2ccccc12)CC(=O)N(CC(=O)NCCS)Cc1cccnc1)Cc1cccnc1 (stereo not shown) [Ligand 16-84-3] (H-[ξCit][NGly(CH2(3-pyridyl))][Gly(N(CH2)2(3-indolyl))][NGly(CH2(3-pyridyl))]-Cysteamide) | 5.31 | 56 mg/mL | –
11 | NC(=O)NCCCC(N)C(=O)N(CC(=O)N(CCc1c[nH]c2ccccc12)CC(=O)NCC(=O)N(CCc1c[nH]c2ccccc12)CC(=O)NCCS)Cc1cccnc1 (stereo not shown) [Ligand 12-65-5] (H-[ξCit][NGly(CH2(3-pyridyl))][Gly(N(CH2)2(3-indolyl))]G[Gly(N(CH2)2(3-indolyl))]-Cysteamide) | 5.44 | 64 mg/mL | –
12 | NC(=O)NCCCC(NC(=O)CN(Cc1ccccc1)C(=O)CNCc1cccnc1)C(=O)NC(CCCNC(N)=O)C(=O)NCCS (stereo not shown) [Ligand 12-55-6] (H-[NGly(CH2(3-pyridyl))][Nphe][Cit][Cit]-Cysteamide; configuration not given here) | 4.48 | 97 mg/mL | –
13 | NC(=O)NCCCC(NC(=O)CNCCc1c[nH]c2ccccc12)C(=O)N(CCc1c[nH]c2ccccc12)CC(=O)N(CC(=O)NCCS)Cc1cccnc1 (stereo not shown) [Ligand 16-83-7] (H-[Gly(N(CH2)2(3-indolyl))][ξCit][Gly(N(CH2)2(3-indolyl))][NGly(CH2(3-pyridyl))]-Cysteamide) | 5.11 | 53 mg/mL | –
14 | CCCN(CC(=O)NCCS)C(=O)C(Cc1c[nH]c2ccccc12)NC(=O)CNC(=O)CN(CCCN)C(=O)CN(CCc1c[nH]c2ccccc12)C(=O)CNCc1cccnc1 (stereo not shown) [Ligand 16-83-2] (H-[NGly(CH2(3-pyridyl))][Gly(N(CH2)2(3-indolyl))][Gly(N(CH2)3NH2)]G[ξW][NPrGly]-Cysteamide) | 5.28 | 49 mg/mL | –
